Data on ten compounds can be found in ChEMBL document CHEMBL1201862, “PubChem BioAssay data set” (2004).

Holding throughout (test): NCI-60 cell line screen, 48 h
Assay [1] deals with UO-31.
For assay [2], the system named is Malme-3M.
The subject of assay [3] is HT-29.
Assay [4] concerns MDA-MB-231.
For assay [5], the system named is SNB-19.
For assay [6], the system named is MOLT-4.
In assay [7] the test system is SF-295.
The subject of assay [8] is A498.
The subject of assay [9] is U-251.
Assay [10] relates to M14.
Assay [11] has as its system SR.
In assay [12] the test system is NCI-H522.
Assay [13] concerns HCT-116.
Assay [14] relates to NCI-H226.
Assay [15] relates to SNB-75.
For assay [16], the system named is SF-268.
The test system of assay [17] is NCI/ADR-RES.
Assay [18] deals with MDA-MB-435.
For assay [19], the system named is CCRF-CEM.
The test system of assay [20] is UACC-257.

SMILES strings stand for the structures.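 Five compound concentrations were applied to cells in 96-well plates for 48 hours; endpoints were derived by simple linear interpolation of the resulting dose-response curve. The concentration for 50% growth inhibition is given as GI50.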 The source made the active and inactive calls. No stated cut-off is given here; in the data, active = GI50 up to about 1.1 µM and inactive = higher.

For the compound `CC[C@@]1(O)C(=O)OCc2c1c(Cl)c1n(c2=O)Cc2cc3ccccc3nc2-1`, the GI50 in [1] is 1.26 µM (inactive); in assay [2], 4.53 µM (inactive); in assay [3], 2.18 µM (inactive); in [4], 61 µM (inactive); in assay [5], 2.36 µM (inactive); in [6], 0.327 µM (active). For the same compound, the GI50 is 1.22 µM (inactive) in assay [7]; 2.18 µM (inactive) in assay [8]; 1.07 µM (active) in assay [9]; 2 µM (inactive) in assay [10]; 0.27 µM (active) in assay [11]; 1.69 µM (inactive) in assay [12]. Also, the GI50 in [13] is 1.36 µM (inactive); in [14] it was 2.14 µM (inactive); in assay [15], 1.84 µM (inactive); in assay [16], 1.31 µM (inactive); in [17] it was 1.8 µM (inactive); in [18] it was 8.95 µM (inactive). Also, the GI50 was 0.372 µM (active) in assay [19] and 2.39 µM (inactive) in [20].

Turning to `O=[N+]([O-])c1nccn1CCCNCCCn1ccnc1[N+](=O)[O-]`, the GI50 in assay [1] is > 100 µM (inactive); in [2] it was 36.6 µM (inactive); in assay [3] it was 85.9 µM (inactive); in assay [4], > 100 µM (inactive); in [6], > 100 µM (inactive); in assay [7], > 100 µM (inactive). The GI50 in assay [8], in assay [9], in assay [10], in assay [11], in assay [12] and in assay [13] was > 100 µM (inactive) in each case. The GI50 in assay [14], in [15], in assay [16], in assay [17], in assay [18] and in [19] was > 100 µM (inactive) in each case. Further, the GI50 in assay [20] was > 100 µM (inactive).

Regarding `NC(Cc1ccccc1)C(=O)NC(Cc1ccccc1)NC(=O)C(Cc1c[nH]c2ccccc12)C(=O)O` (centres undefined), the GI50 in assay [1] is 51.9 µM (inactive); in assay [2] it was > 100 µM (inactive); in assay [3] it was > 100 µM (inactive); in assay [4], > 100 µM (inactive); in assay [5], > 100 µM (inactive); in [7] it was > 100 µM (inactive). The GI50 in [8], in [9], in [10], in assay [11], in [12] and in assay [13] was > 100 µM (inactive) each time. Besides, the GI50 in [14], in assay [15], in assay [16], in assay [17], in assay [18] and in assay [19] was > 100 µM (inactive) throughout. The GI50 in assay [20] is > 100 µM (inactive).

`C=CCN(c1cc(OC)c(NC(C)=O)cc1[N+](=O)[O-])S(C)(=O)=O`: the GI50 in [1] was > 100 µM (inactive); in assay [2] it was 10.1 µM (inactive); in assay [4], > 100 µM (inactive); in assay [5] it was > 100 µM (inactive); in assay [6] it was > 100 µM (inactive); in assay [7], > 100 µM (inactive). Also, the GI50 in assay [8] was > 100 µM (inactive); in [9] it was > 100 µM (inactive); in assay [10], > 100 µM (inactive); in assay [11], > 100 µM (inactive); in assay [12], 0.0349 µM (active); in assay [13], > 100 µM (inactive). Further, the GI50 in assay [14], in assay [15], in assay [16], in [17], in assay [18] and in [19] was > 100 µM (inactive) throughout. Moreover, the GI50 in [20] is > 100 µM (inactive).

`COC(=O)n1c(=O)n(-c2ccccc2)c(=O)n1C(=O)OC`: the GI50 in assay [1], in assay [2], in assay [3], in assay [4], in assay [5] and in assay [6] was > 100 µM (inactive) each time. Besides, the GI50 in assay [8], in assay [9], in assay [10], in [11], in assay [12] and in [13] was > 100 µM (inactive) throughout. The GI50 is > 100 µM (inactive) in assay [14]; 51.2 µM (inactive) in [15]; > 100 µM (inactive) in [16]; > 100 µM (inactive) in assay [17]; > 100 µM (inactive) in [18]; > 100 µM (inactive) in [19]. In addition, the GI50 in [20] was > 100 µM (inactive).

Take `COc1cccc(/C=C/c2cnc3ccccc3n2)c1OC`: the GI50 in assay [1] is 34.1 µM (inactive); in assay [2] it was 34.5 µM (inactive); in assay [3], 26.4 µM (inactive); in assay [4] it was 22 µM (inactive); in assay [6] it was 12.9 µM (inactive); in assay [7], 46.1 µM (inactive). For the same compound, the GI50 was 40.4 µM (inactive) in assay [8]; 39.3 µM (inactive) in [9]; 46.2 µM (inactive) in assay [10]; > 100 µM (inactive) in [11]; 17 µM (inactive) in [12]; 30.1 µM (inactive) in [13]. Besides, the GI50 in [14] was 37.2 µM (inactive); in assay [15], 13.4 µM (inactive); in [16] it was 31.3 µM (inactive); in assay [17] it was 18.5 µM (inactive); in assay [18], 32 µM (inactive); in assay [19], 35.6 µM (inactive). Besides, in assay [20], the GI50 is 37.4 µM (inactive).

Consider `CC(=O)Oc1ccc(/C=C/C(=O)O[C@@H](C(=O)O)[C@@H](OC(=O)/C=C/c2ccc(OC(C)=O)c(OC(C)=O)c2)C(=O)O)cc1OC(C)=O`, for which the GI50 in assay [1], in assay [2], in [4], in assay [5], in assay [7] and in assay [8] was > 100 µM (inactive) in each case. Also, the GI50 in assay [9] was > 100 µM (inactive); in assay [10], > 100 µM (inactive); in [11], > 100 µM (inactive); in assay [12], > 100 µM (inactive); in assay [13], > 100 µM (inactive); in assay [15] it was 82.8 µM (inactive). The GI50 in assay [16], in assay [17], in [18], in [19] and in assay [20] was > 100 µM (inactive) throughout.

For `Nc1nc(Cl)cc(NCC2(CO)CC(CCCc3ccccc3)C2)n1` (centres undefined), the GI50 in assay [1] was 13.8 µM (inactive); in assay [2], > 100 µM (inactive); in assay [3], 25.4 µM (inactive); in assay [4] it was > 100 µM (inactive); in assay [5] it was > 71.1 µM (inactive); in assay [6], > 26.9 µM (inactive). In addition, the GI50 in [7] is > 33.2 µM (inactive); in [8] it was > 63.1 µM (inactive); in assay [9], > 85.3 µM (inactive); in assay [10], > 100 µM (inactive); in assay [11], 1 µM (active); in [12], > 68.7 µM (inactive). For the same compound, the GI50 was > 100 µM (inactive) in assay [14]; > 46 µM (inactive) in [15]; > 100 µM (inactive) in assay [16]; 4.86 µM (inactive) in assay [17]; > 100 µM (inactive) in assay [18]; > 73.1 µM (inactive) in assay [19]. The GI50 in assay [20] is 0.242 µM (active).

Regarding `COc1nc2c(c(=O)[nH]1)N=C(c1ccc([N+](=O)[O-])cc1)CC(c1ccccc1)N2` (centres undefined), the GI50 is 62.4 µM (inactive) in assay [1]; > 100 µM (inactive) in assay [2]; > 100 µM (inactive) in assay [3]; > 100 µM (inactive) in [4]; > 100 µM (inactive) in assay [5]; 54.3 µM (inactive) in assay [6]. Also, the GI50 in [7] was > 100 µM (inactive); in [8], > 100 µM (inactive); in assay [9] it was > 100 µM (inactive); in [10], > 100 µM (inactive); in assay [11], 99.1 µM (inactive); in [12], 66.4 µM (inactive). The GI50 in [13] was 34.5 µM (inactive); in assay [14], > 100 µM (inactive); in [15] it was 32.8 µM (inactive); in [17], > 100 µM (inactive); in assay [18], > 100 µM (inactive); in assay [19], 37.9 µM (inactive). Moreover, the GI50 in [20] was > 100 µM (inactive).

For the compound `COC(=O)/C(C#N)=C(/NCCN)Nc1ccccc1`, the GI50 in assay [1], in assay [2], in assay [3], in [4], in assay [5] and in assay [6] was > 100 µM (inactive) in each case. For the same compound, the GI50 in assay [7], in [8], in assay [9], in assay [10], in assay [11] and in assay [12] was > 100 µM (inactive) throughout. Further, the GI50 in [13] is > 100 µM (inactive); in assay [14] it was > 100 µM (inactive); in assay [15], 57.3 µM (inactive); in assay [16] it was > 100 µM (inactive); in [17] it was > 100 µM (inactive); in [18], > 100 µM (inactive). In addition, in assay [20], the GI50 was > 100 µM (inactive).
